Target: sirtuin 2 (SIRT2) (Homo sapiens, UniProt Q8IXJ6)
Assay: trypsin-coupled fluorescence-based deacetylase assay
Format: biochemical

Chain of sirtuin 2 (SIRT2) (Q8IXJ6 2-389): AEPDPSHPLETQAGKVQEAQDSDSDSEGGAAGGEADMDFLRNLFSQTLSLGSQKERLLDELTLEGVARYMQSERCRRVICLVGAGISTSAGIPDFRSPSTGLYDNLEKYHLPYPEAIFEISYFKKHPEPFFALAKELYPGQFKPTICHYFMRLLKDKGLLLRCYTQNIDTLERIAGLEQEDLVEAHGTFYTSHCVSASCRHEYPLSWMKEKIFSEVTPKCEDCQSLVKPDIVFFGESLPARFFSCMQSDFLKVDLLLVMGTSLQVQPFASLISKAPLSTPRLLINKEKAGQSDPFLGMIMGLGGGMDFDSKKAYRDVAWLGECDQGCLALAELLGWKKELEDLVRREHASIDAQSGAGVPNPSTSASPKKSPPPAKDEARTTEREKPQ

## NC(=O)c1ccc[n+]([C@@H]2O[C@H](COP(=O)([O-])OP(=O)(O)OC[C@H]3O[C@@H](n4cnc5c(N)ncnc54)[C@H](O)[C@@H]3O)[C@@H](O)[C@H]2O)c1 [NAD^+]
  trypsin-coupled fluorescence-based deacetylase assay: in contrast to NAD^+ that could participate in SIRT2-catalyzed protein deacetylation

— article PMC6256357 (Chemical Science, 2018)
